# Results taken from patent US11541132B2, “Radiolabeled compounds” (Hoffmann-La Roche Inc., priority 2017, dated 2023).
# Tests used:
# [1] = biological target: T1, native aSyn aggregates in A30P transgenic mouse brain sections (Homo sapiens, UniProt P37840, A30P); assay: aSyn in vitro displacement assay ([3H]Example-3 autoradiography); format: binding, mutant human aSyn gene); conditions: 1 μM compound; 3 nM [3H]Example-3; A30P transgenic mouse brain sections; read-out: PCT_INHIB A30P @ 1 μM (% displacement of [3H]Example-3)
# T1 construct: from tissue; host or cells: brain sections (midbrain and pons as ROI) of A30P transgenic mice, line B6.D2-Tg(Thy1-SNCA*30P)31Pjk
# [2] = biological target: T2, native Aβ aggregates in human AD brain tissue sections (Homo sapiens, UniProt P05067); assay: Aβ in vitro displacement assay (selectivity counterscreen, [3H]Example 3 autoradiography); format: binding; conditions: 1 μM compound; 3 nM [3H]Example 3; human AD brain sections; read-out: sel. counterscreen PCT_INHIB AD @ 1 μM (% displacement of [3H]Example 3)
# T2 construct: native Aβ aggregates in human AD brain tissue samples; from tissue; host or cells: human AD brain tissue sections
# T2 sequence (P05067 672-713 limits assumed): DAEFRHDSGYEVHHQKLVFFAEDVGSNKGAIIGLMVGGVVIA
inhibition at 1 µM [1] [%],inhibition at 1 µM [2] [%],SMILES
85,84,"COc1ccc(C(=O)Nc2ccc(N3C[C@@H]4CN(c5ccccn5)C[C@H]4C3)cc2)cc1 [Example 133, 4-Methoxy-N-(4-((3aR,6aR)-5-(pyridin-2-yl)hexahydropyrrolo[3,4-c]pyrrol-2(1H)-yl)phenyl)benzamide]"
94,93,"O=C(Nc1ccc(N2CCN(c3cccnc3)CC2)cc1)c1ccc(OCF)cc1 [Example 134, 4-(fluoromethoxy)-N-(4-(4-(pyridin-3-yl)piperazin-1-yl)phenyl)benzamide]"
97,98,"O=C(Nc1ccc(N2CCN(c3ccccn3)CC2)cc1)c1ccc(OCF)cc1 [Example 135, 4-(fluoromethoxy)-N-[4-(4-pyridin-2-ylpiperazin-1-yl)phenyl]benzamide]"
91,92,"N#Cc1ccc(N2CCN(c3ccc(NC(=O)c4ccc(OCF)cc4)cc3)CC2)nc1 [Example 136, N-(4-(4-(5-cyanopyridin-2-yl)piperazin-1-yl)phenyl)-4-(fluoromethoxy) benzamide]"
80,92,"O=C(Nc1ccc(N2CCN(c3ccccn3)CC2)cc1)c1ccc(OCCOCCO)cc1 [Example 137, 4-(2-(2-Hydroxyethoxy)ethoxy)-N-(4-(4-(pyridin-2-yl)piperazin-1-yl)phenyl)benzamide]"
82,89,"O=C(Nc1ccc(N2CCN(c3cccnc3)CC2)cc1)c1ccc(O)cc1 [Example 138, 4-Hydroxy-N-[4-(4-pyridin-3-ylpiperazin-1-yl)phenyl]benzamide]"
94,94,"COc1ccc(C(=O)Nc2ccc(N3CCN(c4ccc(C#N)cc4OC)CC3)cc2)cc1 [Example 139, N-(4-(4-(4-Cyano-2-methoxyphenyl)piperazin-1-yl)phenyl)-4-methoxybenzamide]"
94,93,"COc1ccc(C(=O)Nc2ccc(N3CCN(c4ccc(C#N)c(OC)c4)CC3)cc2)cc1 [Example 140, N-(4-(4-(4-Cyano-3-methoxyphenyl)piperazin-1-yl)phenyl)-4-methoxybenzamide]"
96,94,"COc1ccc(C(=O)Nc2ccc(N3CCN(c4ccc(F)cn4)CC3)cc2)cc1 [Example 141, N-(4-(4-(5-Fluoropyridin-2-yl)piperazin-1-yl)phenyl)-4-methoxybenzamide]"
91,91,"COc1ccc(C(=O)Nc2ccc(N3CCN(c4ccc(N(C)C)cn4)CC3)cc2)cc1 [Example 142, N-(4-(4-(5-(Dimethylamino)pyridin-2-yl)piperazin-1-yl)phenyl)-4-methoxybenzamide]"
91,91,"COc1ccc(C(=O)Nc2ccc(N3CCN(c4ncc(C#N)cn4)CC3)cc2)cc1 [Example 143, N-(4-(4-(5-Cyanopyrimidin-2-yl)piperazin-1-yl)phenyl)-4-methoxybenzamide]"
89,92,"COc1ccc(C(=O)Nc2ccc(N3CCN(c4ccc(C#N)cc4C)CC3)cc2)cc1 [Example 144, N-(4-(4-(4-Cyano-2-methylphenyl)piperazin-1-yl)phenyl)-4-methoxybenzamide]"
98,97,"COc1ccc(C(=O)Nc2ccc(N3CCN(c4ccc(C#N)cc4F)CC3)cc2)cc1 [Example 145, N-(4-(4-(4-Cyano-2-fluorophenyl)piperazin-1-yl)phenyl)-4-methoxybenzamide]"
95,91,"COc1ccc(C(=O)Nc2ccc(N3CCN(c4cccc(F)n4)CC3)cc2)cc1 [Example 146, N-(4-(4-(6-Fluoropyridin-2-yl)piperazin-1-yl)phenyl)-4-methoxybenzamide]"
88,91,"COc1ccc(C(=O)Nc2ccc(N3CCN(c4cnc(C#N)cn4)CC3)cc2)cc1 [Example 147, N-(4-(4-(5-Cyanopyrazin-2-yl)piperazin-1-yl)phenyl)-4-methoxybenzamide]"
86,89,"COc1ccc(C(=O)Nc2ccc(N3CCN(c4ncccc4F)CC3)cc2)cc1 [Example 148, N-(4-(4-(3-Fluoropyridin-2-yl)piperazin-1-yl)phenyl)-4-methoxybenzamide]"
93,91,"COc1ccc(C(=O)Nc2ccc(N3CCN(c4cc(Cl)ccn4)CC3)cc2)cc1 [Example 149, N-(4-(4-(4-Chloropyridin-2-yl)piperazin-1-yl)phenyl)-4-methoxybenzamide]"
98,94,"COc1ccc(C(=O)Nc2ccc(N3CCN(c4ccc(C#N)c(F)c4)CC3)cc2)cc1 [Example 150, N-(4-(4-(4-Cyano-3-fluorophenyl)piperazin-1-yl)phenyl)-4-methoxybenzamide]"

inhibition at 1 µM [1] [%],inhibition at 1 µM [2] [%],SMILES
93,91,"COc1ccc(C(=O)Nc2ccc(N3CCN(c4cc(C)c(C#N)cn4)CC3)cc2)cc1 [Example 151, N-(4-(4-(5-Cyano-4-methylpyridin-2-yl)piperazin-1-yl)phenyl)-4-methoxybenzamide]"
90,88,"COc1ccc(C(=O)Nc2ccc(N3CCN(c4cc(Cl)c(C#N)cn4)CC3)cc2)cc1 [Example 152, N-(4-(4-(4-Chloro-5-cyanopyridin-2-yl)piperazin-1-yl)phenyl)-4-methoxybenzamide]"
92,87,"COc1ccc(C(=O)Nc2ccc(N3CCN(c4ccc(C#N)c(C)c4)CC3)cc2)cc1 [Example 153, N-(4-(4-(4-Cyano-3-methylphenyl)piperazin-1-yl)phenyl)-4-methoxybenzamide]"
98,96,"COc1ccc(C(=O)Nc2ccc(N3CCN(c4ccc(C#N)nc4)CC3)cc2)cc1 [Example 154, N-(4-(4-(6-Cyanopyridin-3-yl)piperazin-1-yl)phenyl)-4-methoxybenzamide]"
85,97,"COc1ccc(C(=O)Nc2ccc(N3CCN(c4ccnc(OC)c4)CC3)cc2)cc1 [Example 155, 4-Methoxy-N-(4-(4-(2-methoxypyridin-4-yl)piperazin-1-yl)phenyl)benzamide]"
81,76,"COc1ccc(C(=O)Nc2ccc(N3CCN(c4ccc(C)nc4)CC3)cc2)cc1 [Example 156, 4-Methoxy-N-(4-(4-(6-methylpyridin-3-yl)piperazin-1-yl)phenyl)benzamide]"
91,92,"COc1ccc(C(=O)Nc2ccc(N3CCN(c4ccc(C#N)cc4)CC3)cc2)cn1 [Example 157, N-(4-(4-(4-Cyanophenyl)piperazin-1-yl)phenyl)-6-methoxynicotinamide]"
83,87,"Cn1cc(C(=O)Nc2ccc(N3CCN(c4ccc(C#N)cc4)CC3)cc2)cn1 [Example 158, N-(4-(4-(4-Cyanophenyl)piperazin-1-yl)phenyl)-1-methyl-1H-pyrazole-4-carboxamide]"
88,89,"COc1ccc(C(=O)Nc2ccc(N3CCN(c4ccc(C#N)cn4)CC3)cc2)cc1OC [Example 159, N-(4-(4-(5-Cyanopyridin-2-yl)piperazin-1-yl)phenyl)-3,4-dimethoxybenzamide]"
96,95,"COc1ccc(C(=O)Nc2ccc(N3CCN(c4ccc(C#N)cn4)CC3)cc2)cc1F [Example 160, N-(4-(4-(5-Cyanopyridin-2-yl)piperazin-1-yl)phenyl)-3-fluoro-4-methoxybenzamide]"
84,87,"N#Cc1ccc(N2CCN(c3ccc(NC(=O)c4ccncc4)cc3)CC2)nc1 [Example 161, N-(4-(4-(5-Cyanopyridin-2-yl)piperazin-1-yl)phenyl)isonicotinamide]"
84,78,"COc1ccc(C(=O)Nc2ccc(N3CCN(c4ccc(C#N)cn4)CC3)cc2)nc1 [Example 162, N-(4-(4-(5-Cyanopyridin-2-yl)piperazin-1-yl)phenyl)-5-methoxypicolinamide]"
94,92,"COc1ccc(C(=O)Nc2ccc(N3CCN(c4ccc(C#N)cc4)CC3)cc2)cc1F [Example 163, N-(4-(4-(4-Cyanophenyl)piperazin-1-yl)phenyl)-3-fluoro-4-methoxybenzamide]"
80,90,"N#Cc1ccc(C(=O)Nc2ccc(N3CCN(c4ccc(C#N)cn4)CC3)cc2)cc1 [Example 164, 4-Cyano-N-(4-(4-(5-cyanopyridin-2-yl)piperazin-1-yl)phenyl)benzamide]"
86,90,"N#Cc1ccc(N2CCN(c3ccc(NC(=O)c4ccncn4)cc3)CC2)cc1 [Example 165, N-(4-(4-(4-Cyanophenyl)piperazin-1-yl)phenyl)pyrimidine-4-carboxamide]"
81,70,"COc1ccc(C(=O)Nc2ccc(N3CCN(c4ccc(C#N)cc4)CC3)cc2)nc1 [Example 166, N-(4-(4-(4-Cyanophenyl)piperazin-1-yl)phenyl)-5-methoxypicolinamide]"
91,88,"COc1ccc(C(=O)Nc2ccc(N3CCN(c4ccc(C#N)cc4)CC3)cc2)cc1C [Example 167, N-(4-(4-(4-Cyanophenyl)piperazin-1-yl)phenyl)-4-methoxy-3-methylbenzamide]"
